From US9265253B2, “Use of macrocyclic picolinamides as fungicides” (DOW AGROSCIENCES LLC, priority 2013, dated 2016)
Read-outs that look alike come from different tables or passages of the source.

Legend:
[1] = test system: Puccinia triticina; Synonym: Puccinia recondite f. Sp. Tritici; assay: Wheat Brown Rust (PUCCRT) disease control; assay type: in vivo; settings: rate 100 ppm; for pest or weed control at 100 ppm: Puccinia triticina, topical
Description: (§1) Technical grades of materials were dissolved in acetone, which were then mixed with nine volumes of water containing 110 ppm Triton X-100. The fungicide solutions were applied onto wheat seedlings using an automated booth sprayer to run-off. All sprayed plants were allowed to air dry prior to further handling. All fungicides were evaluated using the aforementioned method for their activity vs. all target diseases. Wheat leaf blotch and brown rust activity were also evaluated using track spray applications, in which case the fungicides were formulated as EC formulations, containing 0.1% Trycol 5941 in the spray solutions. Wheat plants (variety Yuma) were grown from seed in a greenhouse in 50% mineral soil/50% soil-less Metro mix until the first leaf was fully emerged, with 7-10 seedlings per pot. These plants were inoculated with an aqueous spore suspension of Septoria tritici either prior to or after fungicide treatments. After inoculation the plants were kept in 100% relative humidity (one day in a dark dew chamber followed by two to three days in a lighted dew chamber at 20° C.) to permit spores to germinate and infect the leaf. The plants were then transferred to a greenhouse set at 20° C. for disease to develop. When disease symptoms were fully expressed on the 1st leaves of untreated plants, infection levels were assessed on a scale of 0 to 100 percent disease severity. Percent disease control was calculated using the ratio of disease severity on treated plants relative to untreated plants. Wheat plants (variety Yuma) were grown from seed in a greenhouse in 50% mineral soil/50% soil-less Metro mix until the first leaf was fully emerged, with 7-10 seedlings per pot. These plants were inoculated with an aqueous spore suspension of Puccinia triticina either prior to or after fungicide treatments. After inoculation the plants were kept in a dark dew room at 22° C. with 100% relative humidity overnight to permit spores to germinate and infect the leaf. The plants were then transferred to a greenhouse set at 24° C. for disease to develop. Fungicide formulation, application and disease assessment followed the procedures as described in the Example A.

[2] = test system: Mycosphaerella graminicola; Anamorph: Septoria tritici; assay: Leaf Blotch of Wheat (SEPTTR) disease control; assay type: in vivo; settings: rate 100 ppm; for pest or weed control at 100 ppm: Zymoseptoria tritici
Description: as §1, with “plants.” for “plants. Wheat plants (variety Yuma) were grown from seed in a greenhouse in 50% mineral soil/50% soil-less Metro mix until the first leaf was fully emerged, with 7-10 seedlings per pot. These plants were inoculated with an aqueous spore suspension of Puccinia triticina either prior to or after fungicide treatments. After inoculation the plants were kept in a dark dew room at 22° C. with 100% relative humidity overnight to permit spores to germinate and infect the leaf. The plants were then transferred to a greenhouse set at 24° C. for disease to develop. Fungicide formulation, application and disease assessment followed the procedures as described in the Example A.”

[3] = 24 h, 1 Day Protectant, read-out: PUCCRT 1 DP disease control
[4] = 72 h, 3 Day Curative, read-out: PUCCRT 3 DC disease control
[5] = 24 h, 1 Day Protectant, read-out: SEPTTR 1 DP disease control
[6] = 72 h, 3 Day Curative, read-out: SEPTTR 3 DC disease control

| Structure (SMILES) | pest or weed control at 100 ppm [1, 3] | pest or weed control at 100 ppm [1, 4] | pest or weed control at 100 ppm [2, 5] | pest or weed control at 100 ppm [2, 6] | PUCCRT 1 DP disease control ([1]; 1 Day Protectant) | SEPTTR 1 DP disease control ([2]; 1 Day Protectant) | SEPTTR 3 DC disease control ([2]; 3 Day Curative) |
| --- | --- | --- | --- | --- | --- | --- | --- |
| COc1ccnc(C(=O)N[C@H]2CCC[C@H](CCF)[C@@H](OCC(C)C)[C@H](C)OC2=O)c1O [Compound F43] | 80 to 100% | 80 to 100% | 80 to 100% | 80 to 100% | – | – | – |
| COc1ccnc(C(=O)N[C@H]2CCC[C@H](CCOc3ccccc3)[C@@H](Oc3ccccc3)[C@H](C)OC2=O)c1O [Compound F44] | 80 to 100% | 80 to 100% | 80 to 100% | 80 to 100% | – | – | – |
| COCC[C@H]1CCC[C@H](NC(=O)c2nccc(OC)c2O)C(=O)O[C@@H](C)[C@@H]1Oc1ccccc1 [Compound F45] | 80 to 100% | 80 to 100% | 80 to 100% | 80 to 100% | – | – | – |
| COc1ccnc(C(=O)N[C@H]2CCC[C@H](CCSC)[C@@H](OCC(C)C)[C@H](C)OC2=O)c1O [Compound F46] | 80 to 100% | 80 to 100% | 0 to 80% | 80 to 100% | – | – | – |
| COCC[C@H]1CCC[C@H](NC(=O)c2nccc(OC)c2O)C(=O)O[C@@H](C)[C@@H]1OCC(C)C [Compound F47] | 80 to 100% | 80 to 100% | 80 to 100% | 80 to 100% | – | – | – |
| CC[C@H]1CCC[C@H](NC(=O)c2nccc(OC)c2O)C(=O)O[C@@H](C)[C@@H]1OCC(C)C [Compound F48] | 80 to 100% | 80 to 100% | 80 to 100% | 80 to 100% | – | – | – |
| COc1ccnc(C(=O)N[C@H]2CCC[C@H](CCBr)[C@@H](Oc3ccccc3)[C@H](C)OC2=O)c1O [Compound F50] | 80 to 100% | 80 to 100% | 80 to 100% | 80 to 100% | – | – | – |
| CC[C@H]1CCC[C@H](NC(=O)c2nccc(OC)c2O)C(=O)O[C@@H](C)[C@@H]1Oc1ccccc1 [Compound F51] | 80 to 100% | 0 to 80% | 80 to 100% | 0 to 80% | – | – | – |
| COc1ccnc(C(=O)N[C@H]2CCC[C@H](CC(F)F)[C@@H](Oc3ccccc3)[C@H](C)OC2=O)c1O [Compound F53] | 80 to 100% | 80 to 100% | 80 to 100% | 0 to 80% | – | – | – |
| COc1ccnc(C(=O)N[C@H]2CCC[C@H](CCOCC3CC3)[C@@H](OCC3CC3)[C@H](C)OC2=O)c1O [Compound F54] | 80 to 100% | 80 to 100% | 0 to 80% | 80 to 100% | – | – | – |
| COc1ccnc(C(=O)N[C@H]2CCC[C@H](Cc3ccc(C)cc3)[C@@H](OCCCC(F)(F)F)[C@H](C)OC2=O)c1O [Compound F55] | – | – | – | – | A (80-100) | A (80-100) | B (More than 0-Less than 80) |
| COc1ccnc(C(=O)N[C@H]2CCC[C@H](Cc3ccc(F)cc3F)[C@@H](OCCCc3ccccc3)[C@H](C)OC2=O)c1O [Compound F56] | 80 to 100% | 0 to 80% | 80 to 100% | 0 to 80% | – | – | – |
| COc1ccnc(C(=O)N[C@H]2CCC[C@H](CCOc3ccccc3)[C@@H](OCC3CC3)[C@H](C)OC2=O)c1O [Compound F57] | 80 to 100% | 80 to 100% | 80 to 100% | 0 to 80% | – | – | – |
| C=C[C@H]1CCC[C@H](NC(=O)c2nccc(OC)c2O)C(=O)O[C@@H](C)[C@@H]1Oc1ccccc1 [Compound F61] | 80 to 100% | 0 to 80% | 80 to 100% | – | – | – | – |
